Laboratory results from article PMC2685978, “Evaluation of Wuchereria bancrofti GST as a Vaccine Candidate for Lymphatic Filariasis” (PLoS Neglected Tropical Diseases, 2009).

Target: T1, rWbGST (Wuchereria bancrofti, UniProt Q86LL8)
T1 construct: about 28 kDa with tag
T1 sequence (Q86LL8 1-208): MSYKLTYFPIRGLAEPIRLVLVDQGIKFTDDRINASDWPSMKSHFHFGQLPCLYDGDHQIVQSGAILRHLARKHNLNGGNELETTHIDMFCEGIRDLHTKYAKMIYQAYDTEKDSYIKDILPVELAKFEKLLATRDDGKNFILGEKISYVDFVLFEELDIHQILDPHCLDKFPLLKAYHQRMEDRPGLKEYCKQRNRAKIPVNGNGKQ
Experiment: spectrophotometric conjugation assay at […] nm
Type: biochemical
Conditions: 1.0 mM CDNB, 1.0 mM GSH, 100 mM phosphate, pH 6.5; only specific activity printed

O=[N+]([O-])c1ccc(Cl)c([N+](=O)[O-])c1 [CDNB, 1-chloro-2,4-dinitrobenzene]
spectrophotometric conjugation assay at 340 nm: GST enzyme activity was determined using CDNB and GSH substrates
